Test results from US10793598B2, “GrB-EHITSN inhibitory peptides” (Rush University Medical Center, priority 2014, dated 2020).
No end group written: not given here.

B1: myc-GrB-EHITSN: myc-tagged granzyme B cleavage fragment of intersectin-1s (two EH domains), expressed from DNA plasmid delivered via cationic liposomes (protein)
chain: MAQFPTPFGGSLDIWAITVEERAKHDQQFHSLKPISGFITGDQARNFFFQSGLPQPVLAQIWALADMNNDGRMDQVEFSIAMKLIKLKLQGYQLPSALPPVMKQQPVAISSAPAFGMGGIASMPPLTAVAPVPMGSIPVVGMSPTLVSSVPTAAVPPLANGAPPVIQPLPAFAHPAATLPKSSSFSRSGPGSQLNTKLQKAQSFDVASVPPVAEWAVPQSSRLKYRQLFNSHDKTMSGHLTGPQARTILMQSSLPQAQLASIWNLSDIDQD
modifications: left off: small tags and cut ends
notes: myc-tagged granzyme B cleavage fragment of intersectin-1s (two EH domains), expressed from DNA plasmid delivered via cationic liposomes

Tests used:
[1] = test system: myc-GrB-EHITSN-mice; test: RVSP measured by right heart catheterization; assay type: in vivo, mouse
Method: FIGS. 3A-3D illustrate representative H&E staining of lung sections of myc-GrB-EHITSN-KDITSN mice (A, a1, B) and RVSP measurements (C) in wt-(bar a), empty-Lipo (bar b) and myc-GrB-EHITSN-mice (bar c), 10 days of GrB-EHITSN treatment. […] Data are mean±SEM. For morphological assessment of peptide internalization (panel D), mice were sacrificed 1 h after injection. Bars: 50 μm (A, B); 20 μm (a1, D). n=3.

[2] = test system: phospho-p38; test: WB of cell lysates using phospho (p)-p38 and p38 Abs; assay type: cell-based; settings: GrB-EHITSN-transfected ECs, exposure for 24 h
Method: (§1) (c), using phospho (p)-p38 and p38 Abs. […] C. […] Bar: 50 μm. Inset c1. ECCtrl (a) and myc-GrB-EHITSN-ECs (b) lysates resolved on SDS PAGE and transferred to nitrocellulose membranes were overlaid with the PenNFP-FITC.
(§2) ECs stably transfected with the myc-GrB-EHITSN [selected based on neomycin-resistance], were treated with the PenNPF-FITC peptide to address whether inhibition of GrB-EHITSN ameliorates EC proliferation. […] A growth curve was generated to relate the OD^570 values to the cell number per well. […] Inset c1. ECCtrl (a) and myc-GrB-EHITSN-ECs (b) lysates resolved on SDS PAGE and transferred to nitrocellulose membranes were overlaid with the PenNFP-FITC.

[3] = test system: myc-GrB-EHITSN-transfected ECs; test: MTT assay of EC proliferation / cell growth; assay type: cell-based; settings: for cell growth / EC proliferative potential (MTT): myc-GrB-EHITSN-transfected ECs, 12.5 μM peptide, 1 h, 37° C., vs transfected ECs not exposed
Method: as §1, §2

[4] = test system: ECs; test: Fluorescence microscopy of peptide internalization; assay type: cell-based; settings: 12.5 μM PenNPF-FITC
Method: (§3) FIGS. 1A-1C illustrate the effect of the GrB-EHITSN inhibitory peptide on ECs. A. MTT assay applied on ECCtrl, myc-GrB-EHITSN-transfected ECs and myc-GrB-EHITSN-transfected ECs exposed to 12.5 μM PenNFP-FITC peptide for 1 h, 37° C.; p<0.05; WB of cell lysates (inset a1) of ECCtrl (a), myc-GrB-EHITSN-ECs (b) and myc-GrB-EHITSN-ECs+12.5 μM PenNPF for 1 h, 37° C. (c), using phospho (p)-p38 and p38 Abs. B. Quantification of EC proliferation: ECCtrl (a), myc-GrB-EHITSN-ECs (b), myc-GrB-EHITSN-ECs+12.5 μM PenNPF (c), myc-GrB-EHITSN-ECs+12.5 μM Pen-AAA (d), myc-GrB-EHITSN-ECs+12.5 μM Pen (e), myc-GrB-EHITSN-ECs+12.5 μM NPF (f), and myc-GrB-EHITSN-ECs+12.5 μM scrambled penNPF, (g). Data in A and B are mean±SEM of 3 independent experiments performed in triplicates. *p<0.05 vs. ECCtrl. C. Fluorescence microscopy of ECs exposed to 12.5 μM PenNPF-FITC, fixed and mounted on glass slides with Prolong Antifade with DAPI. Bar: 50 μm. Inset c1. ECCtrl (a) and myc-GrB-EHITSN-ECs (b) lysates resolved on SDS PAGE and transferred to nitrocellulose membranes were overlaid with the PenNFP-FITC.
(§4) ECs stably transfected with the myc-GrB-EHITSN [selected based on neomycin-resistance], were treated with the PenNPF-FITC peptide to address whether inhibition of GrB-EHITSN ameliorates EC proliferation. […] A growth curve was generated to relate the OD^570 values to the cell number per well. […]

[5] = biological target: T1, myc-GrB-EHITSN (Homo sapiens, UniProt Q15811); test: Overlay of lysates on nitrocellulose membranes with FITC peptide, detected by FITC Ab; assay type: binding; settings: overlay on myc-GrB-EHITSN-EC lysates; n=3
T1 construct: with a conserved cleavage site (IDQD^271GK) throughout the evolution; expressed in transfected cells; host or cells: endothelial cells (ECs), stably transfected, neomycin-selected; lysates resolved by SDS-PAGE and blotted
T1 sequence (Q15811 1-271): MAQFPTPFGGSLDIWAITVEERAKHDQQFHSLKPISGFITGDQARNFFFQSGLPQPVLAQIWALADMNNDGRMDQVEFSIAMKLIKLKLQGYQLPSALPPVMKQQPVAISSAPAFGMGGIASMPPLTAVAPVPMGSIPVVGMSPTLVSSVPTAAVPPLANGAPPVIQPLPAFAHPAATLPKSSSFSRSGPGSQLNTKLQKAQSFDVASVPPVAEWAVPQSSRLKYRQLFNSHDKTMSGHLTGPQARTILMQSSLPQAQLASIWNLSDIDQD
Method: as §3, §4

[6] = WB with myc Ab on lung lysates (expression of the encoded protein); assay type: in vivo, mouse; settings: after liposomal plasmid delivery; efficiently expressed at 48 h post-delivery
Method: (§5) GrB-EHITSN has EC proliferative potential in vivo. To address the proliferative potential of GrB-EHITSN in vivo, the myc-GrB-EHITSN DNA plasmid was delivered via cationic liposomes into mouse lungs. (Knezevic, 2011). […] For continuous and efficient long-term expression of myc-GrB-EHITSN, mice were injected repeatedly every 48 h, for 9 days (Bardita, 2013). Actin was used as loading control. In parallel studies, myc-GrB-EHITSN-transduced mice (FIG. 2B) and wt-controls (FIG. 2A) were subjected to BrdU cell proliferation and morphometric analyses, at day 6 of GrB-EHITSN treatment (Bardita, 2013). BrdU was injected intra-peritoneally every 24 h, for 2 consecutive days (day 4 and 5 of myc-GrB-EHITSN treatment). Incorporated BrdU was detected via BrdU-FITC Ab; CD31 Ab/AlexaFluor 594 was used for positive identification of ECs. For morphological assessment of peptide internalization mice were sacrificed 1 h after injection. […] Data in FIG. 2A-B indicate that the GrB-EHITSN has EC proliferative in vivo.

[7] = test system: BrdU+ ECs; test: BrdU cell proliferation assay in mouse lungs; assay type: in vivo; settings: myc-GrB-EHITSN plasmid via cationic liposomes into mouse lungs, day 6 of treatment
Excerpt: FIGS. 2A-2B illustrate the proliferative effect of the GrB-EHITSN fragment on EC in vivo. Wt-mice (B) and myc-GrB-EHITSN-treated mice, day 5 of treatment (A) were subjected to BrdU proliferation assay. Data are mean±SEM. All data are representative of 3 mice in each group. Bars: 20 μm.
as §5

[8] = test system: GrB-EHITSN-mice; test: Fulton's index (RV hypertrophy); assay type: in vivo, mouse; settings: means±SEM, p<0.05 vs wt-mice
Excerpt: GrB-EHITSN increases pulmonary pressure in mouse lungs. […] The Fulton's index (RV/left ventricle plus septum), indicative of RV hypertrophy, assessed as in (Qin, 2012) was higher in GrB-EHITSN-mice compared to wt-mice (0.31±0.03 vs. 0.22±0.01; means±SEM; p<0.05).

Molecule	decrease in RVSP ([1]; myc-GrB-EHITSN-mice, 50 μg PenNPF/mouse) [%]	phospho-p38 / p38 activation [2]	cell growth / EC proliferative potential (MTT) [3]	internalization by ECs (fluorescent imaging) [4]	decrease in the number of myc-GrB-EHITSN-transfected cells ([3]; calculated on 3 successive points of growth curve, vs transfected ECs not exposed to peptide)	OD570 values ([3]; wells with myc-GrB-EHITSN-transfected cells exposed to peptide)	interaction with myc-GrB-EHITSN [5]	increase in RVSP compared to wt- and empty liposomes-treated mice ([1]; day 10-post initial GrB-EHITSN delivery) [fold]	lifetime of encoded protein in mouse lung [6]	increase in BrdU+ ECs relative to controls [7]	Fulton's index (RV/left ventricle plus septum) [8]
RQIKIWFQNRRMKWKKPTGSSSTNPFL (PenNPF fusion peptide)	20	decreases the ECs proliferative potential of GrB-EHITSN and p38 activation	decreases the ECs proliferative potential of GrB-EHITSN	–	–	–	–	–	–	–	–
PenNPF-FITC: PenNPF inhibitory peptide carrying a FITC-tag (RQIKIWFQNRRMKWKKPTGSSSTNPFL; also: FITC tag, site not given here)	–	phospho-p38 inhibition	inhibits cell growth	efficient internalization	greater than 35%	close to the OD^570 values of control ECs	direct interaction	–	–	–	–
B1	–	–	–	–	–	–	–	1.36	about 72 h	more than 1.6 fold	0.31±0.03
